# Like-named read-outs stand apart in the source and are kept apart here.
# Key:
# [1] = ester bond, 18-membered ring, EDCI/HOBt/DIPEA, DCM, 25.0 °C
# [2] = tested on: P70S6K (Thr389) phosphorylation (mTORC1) in MDA-MB-468 cells; assay: Cell based AlphaLISA assay, mTOR kinase cellular assay: inhibition of p-P70S6K (T389) in MDA-MB-468 cells
# How it was run: (§1)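 MDA-MB-468 cells treated with compound at 0.017-1,000 nM for two to four hours at 37° C, then lysed. Phospho-AKT1/2/3 S473, 4EBP1 T37/46 and P70S6K T389 quantified by AlphaLISA SureFire Ultra in duplicate; IC50 from normalized regression with control-based normalization.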
# [3] = tested on: 4EBP1 (Thr37/46) phosphorylation (mTORC1) in MDA-MB-468 cells; assay: Cell based AlphaLISA assay, mTOR kinase cellular assay: inhibition of p-4E-BP1 (T37/46) in MDA-MB-468 cells
# How it was run: as §1
# [4] = tested on: AKT1/2/3 (Ser473) phosphorylation (mTORC2) in MDA-MB-468 cells; assay: Cell based AlphaLISA assay, mTOR kinase cellular assay: inhibition of p-Akt (S473) in MDA-MB-468 cells
# How it was run: as §1
# [5] = tested on: Capan-2 KRASG12V/wt xenograft; assay: In vivo efficacy, Capan-2 CDX model; conditions: Compound A 100 mg/kg po bid
# Experimental: Capan-2 cells were implanted in 50% Matrigel. Animals were randomized and treatment was initiated at average tumor volume of ˜180 mm3. […] Ns=no significance; ***p<0.001 by one-way ANOVA.
# Once tumors reached an average size of ˜180 mm3, mice were randomized to treatment groups to start the administration of test articles or vehicle. […] Body weight and tumor volume (using calipers) was measured twice weekly until study endpoints.
# [6] = Homo sapiens, read-out: pIC50 for Inhibition of mTORC1 and mTORC2 Substarte Phosphorylation p-P70S6K-(T389) (converted)
# [7] = Homo sapiens, read-out: pIC50 for Inhibition of mTORC1 and mTORC2 Substarte Phosphorylation p-4E-BP1-(T37/46) (converted)
# [8] = Homo sapiens, read-out: pIC50 for Inhibition of mTORC1 and mTORC2 Substarte Phosphorylation p-AKT1/2/3-(S473) (converted)
SMILES,"IC50 [2, 6]","IC50 [3, 7]","IC50 [4, 8]",further results
CC(C)[Si](Oc1cc2cc(c1)-c1ccc3[nH]c(I)c(c3c1)CC(C)(C)COC(=O)[C@@H]1CCCN(N1)C(=O)[C@@H](NC(=O)OC(C)(C)C)C2)(C(C)C)C(C)C,–,–,–,"ring closure, isolated yield ([1]; from CC(C)[Si](Oc1cc(C[C@H](NC(=O)OC(C)(C)C)C(=O)N2CCC[C@@H](C(=O)O)N2)cc(-c2ccc3[nH]c(I)c(CC(C)(C)CO)c3c2)c1)(C(C)C)C(C)C, 22.8 mM, 16.0 h): 50%"
CCn1c(-c2ccccc2COC)c2c3cc(ccc31)-c1cc(cc([N+](=O)[O-])c1)C[C@H](NC(=O)OC(C)(C)C)C(=O)N1CCC[C@H](N1)C(=O)OCC(C)(C)C2,–,–,–,"ring closure, isolated yield ([1]; from CCn1c(-c2ccccc2COC)c(CC(C)(C)CO)c2cc(-c3cc(C[C@H](NC(=O)OC(C)(C)C)C(=O)N4CCC[C@@H](C(=O)O)N4)cc([N+](=O)[O-])c3)ccc21, 6.4 mM): 73%"
CO[C@H]1C[C@@H]2CC[C@@H](C)[C@@](O)(O2)C(=O)C(=O)N2CCCC[C@H]2C(=O)O[C@H]([C@H](C)C[C@@H]2CC[C@@H](OC(=O)NCc3cnc(N4CCN(c5ncc(C(=O)NCCOCCOCCOCCOCCC(=O)N6CCc7cc(Cn8nc(-c9cnc%10[nH]ccc%10c9)c9c(N)ncnc98)ccc7C6)c(N)n5)CC4)nc3)[C@H](OC)C2)CC(=O)[C@H](C)/C=C(\C)[C@@H](O)[C@@H](OC)C(=O)[C@H](C)C[C@H](C)/C=C/C=C/C=C/1C [Example 108],1 to 10 nM,> 1000 nM,> 1000 nM,–
CO[C@H]1C[C@@H]2CC[C@@H](C)[C@@](O)(O2)C(=O)C(=O)N2CCCC[C@H]2C(=O)O[C@H]([C@H](C)C[C@@H]2CC[C@@H](OC(=O)N3CCc4nc(N5CCN(c6ncc(C(=O)NCCOCCOCCOCCOCCC(=O)N7CCc8cc(Cn9nc(-c%10cnc%11[nH]ccc%11c%10)c%10c(N)ncnc%109)ccc8C7)c(N)n6)CC5)ncc4C3)[C@H](OC)C2)CC(=O)[C@H](C)/C=C(\C)[C@@H](O)[C@@H](OC)C(=O)[C@H](C)C[C@H](C)/C=C/C=C/C=C/1C [Example 109],10 to 1000 nM,> 1000 nM,> 1000 nM,–
CO[C@H]1C[C@@H]2CC[C@@H](C)[C@@](O)(O2)C(=O)C(=O)N2CCCC[C@H]2C(=O)O[C@H]([C@H](C)C[C@@H]2CC[C@@H](OC(=O)NCCOCCOCCOCCOCCOCCOCCC(=O)NC3CCN(CC(=O)N4CCc5cc(Cn6nc(-c7ccc8oc(N)nc8c7)c7c(N)ncnc76)ccc5C4)CC3)[C@H](OC)C2)C[C@@H](O)[C@H](C)/C=C(\C)[C@@H](O)[C@@H](OC)C(=O)[C@H](C)C[C@H](C)/C=C/C=C/C=C/1C [Example 112],≤ 1 nM,> 1000 nM,> 1000 nM,–
CO[C@H]1C[C@@H]2CC[C@@H](C)[C@@](O)(O2)C(=O)C(=O)N2CCCC[C@H]2C(=O)O[C@H]([C@H](C)C[C@@H]2CC[C@@H](OC(=O)NCCOCCOCCOCCOCCOCCOCCC(=O)N3CCC(N4CCC(C(=O)N5CCc6cc(Cn7nc(-c8ccc9oc(N)nc9c8)c8c(N)ncnc87)ccc6C5)CC4)CC3)[C@H](OC)C2)C[C@@H](O)[C@H](C)/C=C(\C)[C@@H](O)[C@@H](OC)C(=O)[C@H](C)C[C@H](C)/C=C/C=C/C=C/1C [Example 113],≤ 1 nM,≤ 3.16 nM,3.16 to 31.6 nM,–
CO[C@H]1C[C@@H]2CC[C@@H](C)[C@@](O)(O2)C(=O)C(=O)N2CCCC[C@H]2C(=O)O[C@H]([C@H](C)C[C@@H]2CC[C@@H](OC(=S)NCc3cnc(N4CCN(C(=O)CCOCCN5CCN(c6ncc(C(=O)N7CCc8cc(Cn9nc(-c%10ccc%11oc(N)nc%11c%10)c%10c(N)ncnc%109)ccc8C7)cn6)CC5)CC4)nc3)[C@H](OC)C2)C[C@@H](O)[C@H](C)/C=C(\C)[C@@H](O)[C@@H](OC)C(=O)[C@H](C)C[C@H](C)/C=C/C=C/C=C/1C [Example 117],≤ 1 nM,≤ 3.16 nM,3.16 to 31.6 nM,–
CO[C@H]1C[C@@H]2CC[C@@H](C)[C@@](O)(O2)C(=O)C(=O)N2CCCC[C@H]2C(=O)O[C@H]([C@H](C)C[C@@H]2CC[C@@H](OC(=O)NCc3cnc(N4CCN(C(=O)CCOCCOCCN5CCN(c6ncc(C(=O)N7CCc8cc(Cn9nc(-c%10cnc%11[nH]ccc%11c%10)c%10c(N)ncnc%109)ccc8C7)cn6)CC5)CC4)nc3)[C@H](OC)C2)CC(=O)[C@H](C)/C=C(\C)[C@@H](O)[C@@H](OC)C(=O)[C@H](C)C[C@H](C)/C=C/C=C/C=C/1C [Example 123],≤ 1 nM,≤ 3.16 nM,31.6 to 1000 nM,–
CO[C@H]1C[C@@H]2CC[C@@H](C)[C@@](O)(O2)C(=O)C(=O)N2CCCC[C@H]2C(=O)O[C@H]([C@H](C)C[C@@H]2CC[C@@H](OC(=O)N3CCc4nc(N5CCN(C(=O)CCOCCN6CCN(c7ncc(C(=O)N8CCc9cc(Cn%10nc(-c%11cnc%12[nH]ccc%12c%11)c%11c(N)ncnc%11%10)ccc9C8)cn7)CC6)CC5)ncc4C3)[C@H](OC)C2)CC(=O)[C@H](C)/C=C(\C)[C@@H](O)[C@@H](OC)C(=O)[C@H](C)C[C@H](C)/C=C/C=C/C=C/1C [Example 124],≤ 1 nM,≤ 3.16 nM,3.16 to 31.6 nM,–
CO[C@H]1C[C@@H]2CC[C@@H](C)[C@@](O)(O2)C(=O)C(=O)N2CCCC[C@H]2C(=O)O[C@H]([C@H](C)C[C@@H]2CC[C@@H](OC(=O)NCc3cnc(N4CCN(CCOCCN5CCN(c6ncc(C(=O)N7CCc8cc(Cn9nc(-c%10cnc%11[nH]ccc%11c%10)c%10c(N)ncnc%109)ccc8C7)cn6)CC5)CC4)nc3)[C@H](OC)C2)CC(=O)[C@H](C)/C=C(\C)[C@@H](O)[C@@H](OC)C(=O)[C@H](C)C[C@H](C)/C=C/C=C/C=C/1C [Example 127],≤ 1 nM,3.16 to 31.6 nM,> 1000 nM,–
CO[C@H]1C[C@@H]2CC[C@@H](C)[C@@](O)(O2)C(=O)C(=O)N2CCCC[C@H]2C(=O)O[C@H]([C@H](C)C[C@@H]2CC[C@@H](OC(=O)N3CCc4nc(N5CCN(CCOCCN6CCN(c7ncc(C(=O)N8CCc9cc(Cn%10nc(-c%11cnc%12[nH]ccc%12c%11)c%11c(N)ncnc%11%10)ccc9C8)cn7)CC6)CC5)ncc4C3)[C@H](OC)C2)CC(=O)[C@H](C)/C=C(\C)[C@@H](O)[C@@H](OC)C(=O)[C@H](C)C[C@H](C)/C=C/C=C/C=C/1C [Example 128],≤ 1 nM,3.16 to 31.6 nM,31.6 to 1000 nM,–
CC(C)n1nc(-c2ccc3oc(N)nc3c2)c2c(N)ncnc21 [MLN-128],–,–,–,"IC50 ([2]; two to four hours at 37° C., AlphaLisa SureFire Ultra, read-out: IC50 for Inhibition of mTORC1 and mTORC2 Substarte Phosphorylation, p-P70S6K-(T389)): 1.4 nM; IC50 ([3]; two to four hours at 37° C., AlphaLisa SureFire Ultra, read-out: IC50 for Inhibition of mTORC1 and mTORC2 Substarte Phosphorylation, p-4E-BP1-(T37/46)): 16 nM; IC50 ([4]; two to four hours at 37° C., AlphaLisa SureFire Ultra, read-out: IC50 for Inhibition of mTORC1 and mTORC2 Substarte Phosphorylation, p-AKT1/2/3-(S473)): 3.7 nM"
Cc1nc(N2CCC3(CC2)CO[C@@H](C)[C@H]3N)c(CO)nc1-c1cccc(Cl)c1Cl [RMC-4550],–,–,–,"TGI, single agent ([5]; RMC-4550 20 mg/kg po every other day, Day 40): 39%; tolerability ([5]; RMC-4550 20 mg/kg po q2d, combination, 40 days): well tolerated"
"CO[C@H]1C[C@@H]2CC[C@@H](C)[C@@](O)(O2)C(=O)C(=O)N2CCCC[C@H]2C(=O)O[C@H]([C@H](C)C[C@@H]2CC[C@@H](O)[C@H](OC)C2)CC(=O)[C@H](C)/C=C(\C)[C@@H](O)[C@@H](OC)C(=O)[C@H](C)C[C@H](C)/C=C/C=C/C=C/1C [Rapamycin, rapamycin, reference compound]",–,–,–,"IC50 ([2]; Homo sapiens, 4 h, two to four hours at 37° C., AlphaLisa SureFire Ultra, read-out: IC50 for Inhibition of mTORC1 and mTORC2 Substarte Phosphorylation, p-P70S6K-(T389)): 0.2 nM; IC50 ([3]; Homo sapiens, 4 h, two to four hours at 37° C., AlphaLisa SureFire Ultra, read-out: IC50 for Inhibition of mTORC1 and mTORC2 Substarte Phosphorylation, p-4E-BP1-(T37/46)): > 1000 nM; IC50 ([4]; Homo sapiens, 4 h, two to four hours at 37° C., AlphaLisa SureFire Ultra, read-out: IC50 for Inhibition of mTORC1 and mTORC2 Substarte Phosphorylation, p-AKT1/2/3-(S473)): > 1000 nM"

# From patent US20230233569A1 (Revolution Medicines, Inc., priority 2020, published 2023)
